System: MV-4-11 cells
Experiment: Gene expression microarray analysis (Affymetrix PrimeView) and GSEA
Format: cell-based, human
Set-up: RFU PODN (11730768_x_at) / Fold change /veh PODN (11730768_x_at) / RFU LINC00158 (11744669_a_at) / Fold change /veh LINC00158 (11744669_a_at) / RFU DUSP10 (11751237_a_at) / Fold change /veh DUSP10 (11751237_a_at) / RFU ID3 (11757404_x_at) / Fold change /veh ID3 (11757404_x_at) / RFU PLEKHG5 (11737974_s_at) / Fold change /veh PLEKHG5 (11737974_s_at) / RFU LRRC4B (11730491_at) / Fold change /veh LRRC4B (11730491_at) / RFU GIMAP4 (11747438_a_at) / Fold change /veh GIMAP4 (11747438_a_at) / RFU KRT8 (11758183_x_at) / Fold change /veh KRT8 (11758183_x_at) / RFU CNN1 (11734310_a_at) / Fold change /veh CNN1 (11734310_a_at) / RFU VPS37D (11726825_at) / Fold change /veh VPS37D (11726825_at) / RFU C10orf10 (11716522_x_at) / Fold change /veh C10orf10 (11716522_x_at) / RFU KIR2DL2 /// KIR2DL4 /// KIR2DL5A /// KIR2DL5B /// KIR2DS1 /// KIR2DS2 /// KIR2DS3 /// KIR2DS4 /// KIR3DL3 /// KIR3DL3 /// KIR3DS1 (11738374_at) / Fold change /veh KIR2DL2 /// KIR2DL4 /// KIR2DL5A /// KIR2DL5B /// KIR2DS1 /// KIR2DS2 /// KIR2DS3 /// KIR2DS4 /// KIR3DL3 /// KIR3DL3 /// KIR3DS1 (11738374_at) / RFU C1QL1 (11718748_at) / Fold change /veh C1QL1 (11718748_at) / RFU TMPRSS4 (11747572_a_at) / Fold change /veh TMPRSS4 (11747572_a_at) / RFU HAMP (11756126_x_at) / Fold change /veh HAMP (11756126_x_at) / RFU RNFT2 (11725882_a_at) / Fold change /veh RNFT2 (11725882_a_at) / RFU NR4A2 (11747474_a_at) / Fold change /veh NR4A2 (11747474_a_at) / RFU ABCC12 (11746883_a_at) / Fold change /veh ABCC12 (11746883_a_at) / RFU TMEM136 (11760407_x_at) / Fold change /veh TMEM136 (11760407_x_at) / RFU CLDN22 /// WWC2 (11732394_at) / Fold change /veh CLDN22 /// WWC2 (11732394_at) / RFU HLA-DPB1 (11760878_x_at) / Fold change /veh HLA-DPB1 (11760878_x_at) / RFU SPINT1 (11716480_a_at) / Fold change /veh SPINT1 (11716480_a_at) / RFU GAP43 (11754022_s_at) / Fold change /veh GAP43 (11754022_s_at) / RFU A4GNT (11735810_at) / Fold change /veh A4GNT (11735810_at) / RFU PRB3 (11715151_x_at) / Fold change /veh PRB3 (11715151_x_at) / RFU TUBB4B (11761932_at) / Fold change /veh TUBB4B (11761932_at) / RFU CAPN14 (11732068_a_at) / Fold change /veh CAPN14 (11732068_a_at) / RFU TMCC2 (11721928_a_at) / Fold change /veh TMCC2 (11721928_a_at) / RFU IRGQ (11745062_a_at) / Fold change /veh IRGQ (11745062_a_at) / RFU FAM174B (11720279_a_at) / Fold change /veh FAM174B (11720279_a_at) / RFU TMPRSS4 (11748680_a_at) / Fold change /veh TMPRSS4 (11748680_a_at) / RFU FAM212B (11763350_a_at) / Fold change /veh FAM212B (11763350_a_at) / RFU PLEKHG5 (11743358_a_at) / Fold change /veh PLEKHG5 (11743358_a_at) / RFU ZSCAN30 (11745921_a_at) / Fold change /veh ZSCAN30 (11745921_a_at) / RFU CMKLR1 (11741424_a_at) / Fold change /veh CMKLR1 (11741424_a_at) / RFU LOC101060620 /// MAPK8IP1 (11723275_at) / Fold change /veh LOC101060620 /// MAPK8IP1 (11723275_at) / RFU SPTSSB (11747773_x_at) / Fold change /veh SPTSSB (11747773_x_at) / RFU PRSS12 (11739890_at) / Fold change /veh PRSS12 (11739890_at) / RFU BIN1 (11741810_x_at) / Fold change /veh BIN1 (11741810_x_at) / RFU WNT11 (11732464_a_at) / Fold change /veh WNT11 (11732464_a_at) / RFU C10orf10 (11716521_a_at) / Fold change /veh C10orf10 (11716521_a_at) / RFU C5orf56 (11738089_at) / Fold change /veh C5orf56 (11738089_at) / RFU CYB561 (11721691_x_at) / Fold change /veh CYB561 (11721691_x_at) / RFU ANKRD19P (11752326_a_at) / Fold change /veh ANKRD19P (11752326_a_at) / RFU OR2T12 /// OR2T33 /// OR2T8 (11738714_s_at) / Fold change /veh OR2T12 /// OR2T33 /// OR2T8 (11738714_s_at) / RFU VCAN (11748164_a_at) / Fold change /veh VCAN (11748164_a_at) / RFU JSRP1 (11732532_at) / Fold change /veh JSRP1 (11732532_at) / RFU KRTAP10-11 (11738290_x_at) / Fold change /veh KRTAP10-11 (11738290_x_at) / RFU MYO3A (11730013_a_at) / Fold change /veh MYO3A (11730013_a_at) / RFU EBF3 (11725865_a_at) / Fold change /veh EBF3 (11725865_a_at) / RFU CAMK2N1 (11719241_x_at) / Fold change /veh CAMK2N1 (11719241_x_at) / RFU C5orf56 (11738088_a_at) / Fold change /veh C5orf56 (11738088_a_at) / RFU OLFML3 (11715873_a_at) / Fold change /veh OLFML3 (11715873_a_at) / RFU LOC100653217 /// NTM (11731650_a_at) / Fold change /veh LOC100653217 /// NTM (11731650_a_at) / RFU MAPK11 (11762145_a_at) / Fold change /veh MAPK11 (11762145_a_at) / RFU FIZ1 (11724087_x_at) / Fold change /veh FIZ1 (11724087_x_at) / RFU OASL (11726364_x_at) / Fold change /veh OASL (11726364_x_at) / RFU SOX15 (11748057_x_at) / Fold change /veh SOX15 (11748057_x_at) / RFU CD79A (11719716_a_at) / Fold change /veh CD79A (11719716_a_at) / RFU HIST1H1D (11736915_at) / Fold change /veh HIST1H1D (11736915_at) / RFU CASKIN2 (11723855_a_at) / Fold change /veh CASKIN2 (11723855_a_at) / RFU LOC730098 (11760151_x_at) / Fold change /veh LOC730098 (11760151_x_at) / RFU OR4N2 (11742367_at) / Fold change /veh OR4N2 (11742367_at) / RFU PRRT2 (11749266_a_at) / Fold change /veh PRRT2 (11749266_a_at) / RFU SNX32 (11753110_a_at) / Fold change /veh SNX32 (11753110_a_at) / RFU CDHR5 (11726645_a_at) / Fold change /veh CDHR5 (11726645_a_at) / RFU RCAN1 (11760418_a_at) / Fold change /veh RCAN1 (11760418_a_at) / RFU FAM167A (11723789_a_at) / Fold change /veh FAM167A (11723789_a_at) / RFU FAM26E (11764081_at) / Fold change /veh FAM26E (11764081_at) / RFU ISYNA1 (11749810_s_at) / Fold change /veh ISYNA1 (11749810_s_at) / RFU ACY1 (11761880_at) / Fold change /veh ACY1 (11761880_at) / RFU 11764098_at / Fold change /veh 11764098_at / RFU SAMD14 (11745864_x_at) / Fold change /veh SAMD14 (11745864_x_at) / RFU NPB (11741838_a_at) / Fold change /veh NPB (11741838_a_at) / RFU TMPRSS6 (11731388_a_at) / Fold change /veh TMPRSS6 (11731388_a_at) / RFU KRTAP10-2 (11738614_at) / Fold change /veh KRTAP10-2 (11738614_at) / RFU ARHGAP8 /// PRR5-ARHGAP8 (11727945_x_at) / Fold change /veh ARHGAP8 /// PRR5-ARHGAP8 (11727945_x_at) / RFU KRTAP5-7 /// NADSYN1 (11734609_at) / Fold change /veh KRTAP5-7 /// NADSYN1 (11734609_at) / RFU RASL12 (11751679_a_at) / Fold change /veh RASL12 (11751679_a_at) / RFU CDKN2B (11736163_a_at) / Fold change /veh CDKN2B (11736163_a_at) / RFU PRF1 (11729649_at) / Fold change /veh PRF1 (11729649_at) / RFU, ZNF638 /// ZNF638-IT1 / Fold change vs veh, ZNF638 /// ZNF638-IT1 / RFU, PANK3 / Fold change vs veh, PANK3 / RFU, SH3YL1 / Fold change vs veh, SH3YL1 / RFU, ZEB2 / Fold change vs veh, ZEB2 / RFU, NRIP1 / Fold change vs veh, NRIP1 / RFU, PTTG1IP / Fold change vs veh, PTTG1IP / RFU, CAPN2 / Fold change vs veh, CAPN2 / RFU, MED14 / Fold change vs veh, MED14 / RFU, SNORA58 / Fold change vs veh, SNORA58 / RFU, C1orf63 / Fold change vs veh, C1orf63 / RFU, LRRFIP1 / Fold change vs veh, LRRFIP1 / RFU, NDUFAF7 / Fold change vs veh, NDUFAF7 / RFU, SLC12A2 / Fold change vs veh, SLC12A2 / RFU, IBTK / Fold change vs veh, IBTK / RFU, ESF1 / Fold change vs veh, ESF1 / Fold change vs veh, TMEM50B / RFU, TAOK1 / Fold change vs veh, TAOK1 / RFU, ACBD3 / Fold change vs veh, ACBD3 / RFU, TMA16 / Fold change vs veh, TMA16 / RFU, RWDD3 / Fold change vs veh, RWDD3 / RFU, BCAT1 / Fold change vs veh, BCAT1 / RFU, EDEM3 / Fold change vs veh, EDEM3 / RFU, TMEM33 / Fold change vs veh, TMEM33 / RFU, WDR75 / Fold change vs veh, WDR75 / RFU, AHCTF1 / Fold change vs veh, AHCTF1 / RFU, TFRC / Fold change vs veh, TFRC / RFU, ZDHHC17 / Fold change vs veh, ZDHHC17 / RFU, NOM1 / Fold change vs veh, NOM1 / RFU, ARL8B / Fold change vs veh, ARL8B / RFU, ZBTB11 / Fold change vs veh, ZBTB11 / RFU, TAMM41 / Fold change vs veh, TAMM41 / RFU, KIAA1704 /// LOC100996395 / Fold change vs veh, KIAA1704 /// LOC100996395 / RFU, ING1 / Fold change vs veh, ING1 / RFU, TRMT61B / Fold change vs veh, TRMT61B / RFU, FUBP3 / Fold change vs veh, FUBP3 / RFU, TP53 / Fold change vs veh, TP53 / RFU, TNKS2 / Fold change vs veh, TNKS2 / RFU, ZFP14 / Fold change vs veh, ZFP14 / RFU, ACTR2 / Fold change vs veh, ACTR2 / RFU, PPP3R1 / Fold change vs veh, PPP3R1 / RFU, PIK3R1 / Fold change vs veh, PIK3R1 / RFU, HNRNPA1 / Fold change vs veh, HNRNPA1 / RFU, RNF170 / Fold change vs veh, RNF170 / RFU, ZNF28 / Fold change vs veh, ZNF28 / RFU, RNGTT / Fold change vs veh, RNGTT / RFU, OGT / Fold change vs veh, OGT / RFU, BRD1 / Fold change vs veh, BRD1 / RFU, MARS / Fold change vs veh, MARS / RFU, ZNF655 / Fold change vs veh, ZNF655 / RFU, FAHD1 / Fold change vs veh, FAHD1 / RFU, BDP1 / Fold change vs veh, BDP1 / RFU, LRRCC1 / Fold change vs veh, LRRCC1 / RFU, ARID1A / Fold change vs veh, ARID1A / RFU, ZNF146 / Fold change vs veh, ZNF146 / RFU, ZNF330 / Fold change vs veh, ZNF330 / RFU, GPN3 / Fold change vs veh, GPN3 / RFU, C9orf123 / Fold change vs veh, C9orf123 / RFU, N4BP2L2 / Fold change vs veh, N4BP2L2 / RFU, ARFIP1 / Fold change vs veh, ARFIP1 / RFU, FAM179B / Fold change vs veh, FAM179B / RFU, BCL10 / Fold change vs veh, BCL10 / RFU, UHRF1BP1L / Fold change vs veh, UHRF1BP1L / RFU, BET1 / Fold change vs veh, BET1 / RFU, CNOT2 / Fold change vs veh, CNOT2 / RFU, ZNF268 / Fold change vs veh, ZNF268 / Fold change vs veh, ZNF507 / RFU, DGCR2 / Fold change vs veh, DGCR2 / RFU, WDSUB1 / Fold change vs veh, WDSUB1 / Fold change vs veh, HSP90B1 /// MIR3652 / RFU, ADSS / Fold change vs veh, ADSS / RFU, GK / Fold change vs veh, GK / RFU, ZNF148 / Fold change vs veh, ZNF148 / RFU, TAF9 / Fold change vs veh, TAF9 / RFU, SLC1A5 / Fold change vs veh, SLC1A5 / RFU, SLMO2 / Fold change vs veh, SLMO2 / RFU, ABCC4 / Fold change vs veh, ABCC4 / RFU, LOC101060439 /// RAP1B / Fold change vs veh, LOC101060439 /// RAP1B / RFU, RFX7 / Fold change vs veh, RFX7 / RFU, GTPBP10 / Fold change vs veh, GTPBP10 / RFU, CNEP1R1 / Fold change vs veh, CNEP1R1 / RFU, BIVM-ERCC5 /// ERCC5 / Fold change vs veh, BIVM-ERCC5 /// ERCC5 / RFU, ILF3 / Fold change vs veh, ILF3 / RFU 11762660_at / Fold change /veh 11762660_at / RFU VCAN (11757783_s_at) / Fold change /veh VCAN (11757783_s_at) / RFU DDX43 (11728927_at) / Fold change /veh DDX43 (11728927_at) / RFU KRT8 (11758188_x_at) / Fold change /veh KRT8 (11758188_x_at) / RFU NKD1 (11759106_at) / Fold change /veh NKD1 (11759106_at) / RFU SRD5A1 (11742802_a_at) / Fold change /veh SRD5A1 (11742802_a_at) / RFU TPSAB1 /// TPSB2 (11721975_s_at) / Fold change /veh TPSAB1 /// TPSB2 (11721975_s_at) / RFU GSTM3 (11746129_a_at) / Fold change /veh GSTM3 (11746129_a_at) / RFU IL23R (11737362_x_at) / Fold change /veh IL23R (11737362_x_at) / RFU TMEM51 (11727254_a_at) / Fold change /veh TMEM51 (11727254_a_at) / RFU PIWIL2 (11732686_x_at) / Fold change /veh PIWIL2 (11732686_x_at) / RFU ORM1 (11744905_x_at) / Fold change /veh ORM1 (11744905_x_at) / RFU CCDC152 (11743942_at) / Fold change /veh CCDC152 (11743942_at) / RFU ECM1 (11717891_a_at) / Fold change /veh ECM1 (11717891_a_at) / RFU IL23R (11748794_a_at) / Fold change /veh IL23R (11748794_a_at) / RFU TNFAIP8L3 (11732012_x_at) / Fold change /veh TNFAIP8L3 (11732012_x_at) / RFU MBOAT4 (11741988_at) / Fold change /veh MBOAT4 (11741988_at) / RFU 11764193_at / Fold change /veh 11764193_at / RFU TMEM53 (11763286_at) / Fold change /veh TMEM53 (11763286_at) / RFU MAGEB2 (11727129_at) / Fold change /veh MAGEB2 (11727129_at) / RFU TMEM200A (11744735_a_at) / Fold change /veh TMEM200A (11744735_a_at) / RFU CCDC152 (11751479_a_at) / Fold change /veh CCDC152 (11751479_a_at) / RFU FAM211A (11726209_a_at) / Fold change /veh FAM211A (11726209_a_at) / RFU RGS16 (11746705_a_at) / Fold change /veh RGS16 (11746705_a_at) / RFU VCAN (11755009_s_at) / Fold change /veh VCAN (11755009_s_at) / RFU RHOB (11743442_s_at) / Fold change /veh RHOB (11743442_s_at) / RFU RGS16 (11720943_a_at) / Fold change /veh RGS16 (11720943_a_at) / RFU RGS16 (11720944_at) / Fold change /veh RGS16 (11720944_at) / RFU, VPS4B / Fold change vs veh, VPS4B / RFU, CREB1 / Fold change vs veh, CREB1 / RFU, DNAJC13 / Fold change vs veh, DNAJC13 / RFU, GNAQ / Fold change vs veh, GNAQ / RFU, CDK5R1 / Fold change vs veh, CDK5R1 / RFU, ZRANB3 / Fold change vs veh, ZRANB3 / RFU, CUL4A / Fold change vs veh, CUL4A / RFU, CCNY / Fold change vs veh, CCNY / RFU, UFL1 / Fold change vs veh, UFL1 / RFU, COG3 / Fold change vs veh, COG3 / RFU, DIAPH2 / Fold change vs veh, DIAPH2 / RFU, SKA2 / Fold change vs veh, SKA2 / RFU, AFF3 / Fold change vs veh, AFF3 / RFU, LMF1 / Fold change vs veh, LMF1 / RFU, IPO11 / Fold change vs veh, IPO11 / RFU, DFFB / Fold change vs veh, DFFB / RFU, FOXP1 / Fold change vs veh, FOXP1 / RFU, CARD8 / Fold change vs veh, CARD8 / RFU, STRN3 / Fold change vs veh, STRN3 / RFU, ADK / Fold change vs veh, ADK / RFU, RASSF2 / Fold change vs veh, RASSF2 / RFU, WIPF1 / Fold change vs veh, WIPF1 / RFU, LARP1B / Fold change vs veh, LARP1B / RFU, RASA1 / Fold change vs veh, RASA1 / RFU, RB1 / Fold change vs veh, RB1 / RFU, PPFIA1 / Fold change vs veh, PPFIA1 / RFU, MAT2A / Fold change vs veh, MAT2A / RFU, CCT5 / Fold change vs veh, CCT5 / RFU, WDR92 / Fold change vs veh, WDR92 / RFU, CUX1 / Fold change vs veh, CUX1 / RFU, TTC7A / Fold change vs veh, TTC7A / RFU, TMEM135 / Fold change vs veh, TMEM135 / RFU, DEPTOR / Fold change vs veh, DEPTOR / RFU, CPM / Fold change vs veh, CPM / RFU, DNAJB6 / Fold change vs veh, DNAJB6 / RFU, CACNA2D3 / Fold change vs veh, CACNA2D3 / RFU, DTX4 / Fold change vs veh, DTX4 / RFU, TFCP2 / Fold change vs veh, TFCP2 / RFU, GMCL1 /// GMCL1P1 / Fold change vs veh, GMCL1 /// GMCL1P1 / RFU, AEBP2 / Fold change vs veh, AEBP2 / RFU, SNHG1 /// SNORD22 /// SNORD25 /// SNORD26 /// SNORD27 /// SNORD28 /// SNORD29 /// SNORD31 / Fold change vs veh, SNHG1 /// SNORD22 /// SNORD25 /// SNORD26 /// SNORD27 /// SNORD28 /// SNORD29 /// SNORD31 / Fold change (Aza/veh), C12orf56 (ProbeSet 11735607_a_at) / Fold change (ACY-1035/veh), C12orf56 (ProbeSet 11735607_a_at) / Fold change (Aza/veh), FGFR1OP (ProbeSet 11751329_s_at) / Fold change (ACY-1035/veh), FGFR1OP (ProbeSet 11751329_s_at) / Fold change (Aza/veh), VPS36 (ProbeSet 11739960_a_at) / Fold change (ACY-1035/veh), VPS36 (ProbeSet 11739960_a_at) / RFU SYPL1 (11715823_x_at) / Fold change /veh SYPL1 (11715823_x_at) / RFU IGFBP7 (11715501_s_at) / Fold change /veh IGFBP7 (11715501_s_at) / RFU REEP3 (11722064_at) / Fold change /veh REEP3 (11722064_at) / RFU IGLL1 (11728026_x_at) / Fold change /veh IGLL1 (11728026_x_at): dose or concentration left out as unconfirmed
Conditions: ProbeSet 11722022_s_at; LIST D

Question: How did the “RFU, CDK5R1” value turn out when Nc1ccc(-c2cccs2)cc1NC(=O)c1ccc2c(c1)cc(C1CC1)n2CCN1CCOCC1 [ACY-1035] was run?
Answer: Its value is 47.94 RFU.
